In BindingDB's records for doi:10.1016/j.bmcl.2009.07.043 (Wyeth Research, 2009) one finds IC50 data, which are given here for 1 compound.

As usually defined, the pIC50 is −log10 of the IC50, conventionally taken in molar units.

pIC50: −log10 of the molar value.

The assay in a line: Inhibition of human Src expressed in rat fibroblasts assessed as anchorage independent growth after 3 days.

As for `COc1cc(Nc2c(C#N)cnc3cc(-c4ncccc4CN4CCOCC4)ccc23)c(Cl)cc1Cl` [4-(2,4-dichloro-5-methoxyphenylamino)-7-(3-(morpholinomethyl)pyridin-2-yl)quinoline-3-carbonitrile], the negative logarithm of the IC50 (pIC50) is less than 5.00.
